Values joined by “and” are separate entries in the source; they are usually repeats but may differ in a detail not shown here. Identical values can stand only once.
Columns and labels:
Healthy human volunteers = tested on: Healthy human volunteers; design: method as in PMID 9029058, PMID 15458014; conditions: up to 100 mg orally and 300 mg transdermally; cited from earlier work
[1] = tested on: relapsed/refractory multiple myeloma (RR–MM); test: Phase 1 trial of oral NMP: efficacy (IMWG response, progression-free and overall survival); format: in vivo, human
Experimental: This was a phase 1, open-label dose-escalation trial of orally administered NMP in patients with relapsed/refractory multiple myeloma (RR–MM). Eligible patients were ≥ 18 years old with Eastern Cooperative Oncology Group (ECOG) < 2 and histologically confirmed plasma cell myeloma defined by WHO 2008 criteria with measurable disease (defined by serum M-protein > 5 g/L, urine M-protein > 200 mg/24 h, involved serum free light chain > 100 mg/L or measurable soft tissue plasmacytoma). Patients were required to have relapsed following prior treatment and/or be refractory to or intolerant of both bortezomib and lenalidomide and must have undergone autologous stem cell transplant (unless deemed ineligible at investigator discretion). Exclusion criteria included: central nervous system involvement, active second malignancy within two years, uncontrolled medical conditions contraindicating an investigational agent due to inadequate organ function and concomitant exposure to anti-myeloma therapies.
The primary study endpoint was to determine the MTD of orally administered NMP in patients with RR–MM. Secondary endpoints included safety, PK analyses, IMWG defined response rate and exploratory immunological biomarkers. Adverse events were defined according to Common Terminology Criteria for Adverse Events (CTCAE version 4.03). Haematological DLTs were defined as grade 4 neutropenia unresponsive to G-CSF, grade 4 thrombocytopenia and febrile neutropenia. Non-haematological DLTs were grade 3 or higher and considered probably related to study drug and not attributable to disease progression and those resulting treatment delays greater than two weeks due to drug-related toxicity. Self-limited (< 24 h) gastrointestinal side effects (e.g. nausea, diarrhoea) responding to supportive measures were not classified as DLTs.
Pharmaceutical grade NMP stock solution (Ashland, Columbus, OH, USA) was diluted in ORA SWEET® SF (Medical Flavouring Systems, Vic, Australia) oral syrup vehicle and sterile water to a final concentration of 50 mg/mL and dispensed weekly in amber glass bottles for storage a room temperature. […] Intra-patient dose escalation at 100 mg increments was also permitted whereby the MTD had not been determined and the patient tolerated two consecutive cycles without DLT or an objective disease response. […]
The study was planned to recruit up to 20 patients, 15 in the dose finding cohort and five as a dose expansion. […] Time to progression was calculated from the first day of treatment to progression using the Kaplan–Meier method. Flow cytometry and gene expression data were analysed using GraphPad Prism (version 6.0; GraphPad Software, San Diego, CA). Data were analysed using Wilcoxon’s matched pairs signed rank test compared with baseline samples (*p < 0.05).

BET-bromodomains = tested on: BET-bromodomains; design: method as in PMID 26047594, PMID 24813887; conditions: suppression of LPS-induced TNFα-secretion, downregulation of cMYC expression; cited from earlier work
[2] = design: method as in PMID 9029058; conditions: human, after a single 100 mg oral dose of NMP; cited from earlier work

SMILES: CN1CCCC1=O [NMP, N-methyl-2-pyrrolidone]
- acute adverse effects after a single dose (Healthy human volunteers): no acute adverse effects
- Median overall survival ([1]; 13 RR–MM patients, 95% CI 9.7– > 44.5 months, median follow-up 43.5 months): 33.1 months and 33 months
- Median progression-free survival ([1]; 13 RR–MM patients, range 29–539 days): 57 days
- IMWG objective disease response (partial response or better), ORR ([1]; 13 patients, 95% CI 0–25%): 0%
- best response of stable disease (SD), patients ([1]; nine of 13 patients, 95% CI 39–91%): 69%
- concentration at which NMP phenocopies effects of BET-inhibitors (BET-bromodomains): 1 to 10 mM
- amount found in urine [2]: 0.8%
